Experimental data from paper PMC1624820, “Inhibition of secreted phospholipase A2 by neuron survival and anti-inflammatory peptide CHEC-9” (Journal of Neuroinflammation, 2006).
“Also recorded” adds a separate entry of the source. Like-named read-outs stand apart in the source and are kept apart here.

Experiments:
[1] = test system: cerebral cortex lesions; design: method as in PMID 15684658; conditions: rat, ref [6], cited from earlier work
[2] = target: sPLA2 group I; assay: 10-pyrene fluorescence enzyme assay, sPLA2 group I (Lineweaver-Burke / Michaelis-Menton); type: biochemical, Naja mossambica; conditions: for Km: without inhibitor 18.80; for Km / Vmax: 5 nM sPLA2, 10-pyrene 2-7 μM, nonlinear regression of Vo; for Vmax: without inhibitor 21.67; for reduction of Vo with varied enzyme concentration: sPLA2 2, 6, 10 nM, CHEC-9 0.1, 1, 10 nM
Description: (§1) Purified secreted phospholipase A2 group I from the venom of the Mozambique cobra (Naja mossambica) was obtained from Sigma. Blood was obtained from the trunk of 20 female Sprague Dawley rats (200–250 g) after decapitation, and by venipunture of 14 healthy adult humans of both sexes. Blood samples from 8 additional rats were collected following subcutaneous injections of 100 μg CHEC-9 or DMEM vehicle. These rats were placed in a standard rat restrainer during the collection period and the samples obtained via a tail nick. All specific procedures of this study were approved by both the Institutional Animal Care and Use Committee and by Institutional Review Board of Drexel University College of Medicine. Blood samples were treated with citrate-phosphate-dextrose anticoagulant (1:10, Sigma), and plasma prepared by centrifugation, before freezing at -80° until used in the enzyme assays. For the ex vivo studies, individual plasma samples were pooled from 3–7 rats or 3–5 humans.
(§2) Enzyme assays were conducted at ambient temperature (22–25°) using a Victor 3 fluorescent reader (Perkin Elmer, Nutley NJ). The substrate was 1-Palmitoyl-2-Pyrenedecanoyl Phosphatidylcholine ("10-pyrene", Caymen Chemical, Ann Arbor MI) a substrate for all calcium dependent PLA2s with the exception of cPLA2 and PAF-AH. The substrate (supplied in chloroform) was dried under a nitrogen stream, quickly dissolved in ethanol, and stored at -20° prior to use. Substrate solutions were prepared in reaction buffer consisting of 50 mM tris (pH = 7.4), 0.1 M NaCl, 2 mM CaCl2, 0.25% fatty acid-free albumin (Sigma) and the CHEC-9 peptide at the indicated concentrations. CHEC-9 ([…]) was synthesized by Celtek, (Nashville, TN), purified and cross-linked as described previously, and aliquots stored in tris buffer or DMEM vehicles at -80°. The 10-pyrene substrate forms phospholipids vesicles in aqueous solutions [13], and upon hydrolysis, releases 10-pyrenyldecanoic acid. This product is fluorescent in the presence of albumin and was measured at 350 nm excitation, 405 nm emission. Plasma samples were 20% final concentration in the reaction mixture, and all enzyme reactions were initiated with the addition of the substrate solution to the sPLA2 containing samples. Kinetic parameters including the properties of CHEC-9 were determined by measuring the initial velocities (Vo) of enzyme reactions (within 2 minutes of initiation). […] This rate is proportional to the concentration of active enzyme in the plasma if product formation during this period is linear with respect to time (see Fig. 6). In most experiments, relative fluorescent units (RFU) were converted to product concentration using a pyrenyldecanoic acid standard curve (Molecular Probes, Eugene, OR). […] Individual reactions were carried out in duplicate or triplicate and kinetic curves were produced using 5–6 substrate concentrations, with or without peptide, reacted simultaneously. […] Km and Vmax and r^2 were determined with regression software (Prism) from Graphpad (San Diego, CA).
(§3) The characteristics of CHEC-9 inhibition were determined using both classical characterization of inhibitor types, i.e., the direction of changes in Km and Vmax, and more recent reports that derive consistent relationships between the extent of enzyme inhibition and substrate concentration. […] We have repeated, combined, and rearranged some of their equations below in order to show the calculations used in the present experiments.
(§4) KiNR is the apparent inhibition constant based on inhibition degree and is independent of inhibitor classification. This value varies predictably with substrate concentration for different inhibitor types. It is defined as: […]

[3] = test system: rat plasma sPLA2; assay: 10-pyrene fluorescence enzyme assay, rat plasma sPLA2 (ex vivo); type: biochemical, rat (Sprague Dawley)
Description: as §1
Enzyme assays were conducted at ambient temperature (22–25°) using a Victor 3 fluorescent reader (Perkin Elmer, Nutley NJ). The substrate was 1-Palmitoyl-2-Pyrenedecanoyl Phosphatidylcholine ("10-pyrene", Caymen Chemical, Ann Arbor MI) a substrate for all calcium dependent PLA2s with the exception of cPLA2 and PAF-AH. The substrate (supplied in chloroform) was dried under a nitrogen stream, quickly dissolved in ethanol, and stored at -20° prior to use. Substrate solutions were prepared in reaction buffer consisting of 50 mM tris (pH = 7.4), 0.1 M NaCl, 2 mM CaCl2, 0.25% fatty acid-free albumin (Sigma) and the CHEC-9 peptide at the indicated concentrations. CHEC-9 ([…]) was synthesized by Celtek, (Nashville, TN), purified and cross-linked as described previously, and aliquots stored in tris buffer or DMEM vehicles at -80°. The 10-pyrene substrate forms phospholipids vesicles in aqueous solutions [13], and upon hydrolysis, releases 10-pyrenyldecanoic acid. This product is fluorescent in the presence of albumin and was measured at 350 nm excitation, 405 nm emission. Plasma samples were 20% final concentration in the reaction mixture, and all enzyme reactions were initiated with the addition of the substrate solution to the sPLA2 containing samples. Kinetic parameters including the properties of CHEC-9 were determined by measuring the initial velocities (Vo) of enzyme reactions (within 2 minutes of initiation). […] Km and Vmax and r^2 were determined with regression software (Prism) from Graphpad (San Diego, CA).
The characteristics of CHEC-9 inhibition were determined using both classical characterization of inhibitor types, i.e., the direction of changes in Km and Vmax, and more recent reports that derive consistent relationships between the extent of enzyme inhibition and substrate concentration. […]

[4] = test system: sPLA2; conditions: 100 μg CHEC-9 s.c.
Description: as §1, with “For the ex vivo studies, individual plasma samples were pooled from 3–7 rats or 3–5 humans.” left out
Enzyme assays were conducted at ambient temperature (22–25°) using a Victor 3 fluorescent reader (Perkin Elmer, Nutley NJ). […] This product is fluorescent in the presence of albumin and was measured at 350 nm excitation, 405 nm emission. […] Kinetic parameters including the properties of CHEC-9 were determined by measuring the initial velocities (Vo) of enzyme reactions (within 2 minutes of initiation). […] Km and Vmax and r^2 were determined with regression software (Prism) from Graphpad (San Diego, CA).

[5] = test system: sPLA2
Description: as §2, §3

[6] = test system: sPLA2 group I; assay: native polyacrylamide gel electrophoresis, enzyme migration; design: species or system Naja mossambica; conditions: for sPLA2 band on native gel, with peptide and substrate: 26 μM sPLA2, 40 μM CHEC-9, 560 μM substrate, 2 mM CaCl2, pH 7.4, room temperature 30 min, repeated four times
Description: Polyacrylamide gradient gels (5–15%) were run with and without SDS or reducing agents using sPLA2 group I alone or after mixing the enzyme with different combinations of the components of the reaction mixture (or their solvents). Samples prepared for the native gels were 50 μl containing 26 μM sPLA2, 40 μM CHEC-9, 560 μM 1-Palmitoyl-2-Pyrenedecanoyl Phosphatidylcholine (substrate), and 2 mM CaCl2 in 20 mM tris buffer (pH = 7.4), incubated together at room temperature for 30 min. After incubation, the samples were evaporated to 20 μl. The samples were then mixed with sample buffer containing only glycerol and bromophenol blue in 0.1 M tris (pH = 6.8) and loaded onto the gels. Following electrophoresis, the gels were washed, fixed, and stained with silver reagent according to conventional methods. The native gel experiment, using different reactant combinations run side by side (Fig. 3), was repeated four times with the same result.

[7] = test system: Human Plasma sPLA2; assay: 10-pyrene fluorescence enzyme assay, human plasma sPLA2 (ex vivo); type: biochemical; conditions: for Vmax: without inhibitor 2.07; for Km: without inhibitor 66.52
Description: as §1, §2, §3, §4

[8] = CHEC-9 10.0 nM, 20% plasma, 10-pyrene 5–30 μM, pH 7.4, 22–25°
[9] = CHEC-9 50.0 nM, 20% plasma, 10-pyrene 5–30 μM, pH 7.4, 22–25°

## CHEASAAQC [CHEC-9, nonapeptide CHEC-9 (…), internal fragment of DSEP/Dermcidin/PIF, synthesized by Celtek, purified and cross-linked]
[1]; a subcutaneous injection after cerebral cortex lesions
  duration of anti-inflammatory and neuron survival effects: at least 4 days
[1]; subcutaneous injection after cerebral cortex lesions
  anti-inflammatory and neuron survival effects: inhibit neuron death and aspects of the inflammatory response; also recorded: anti-inflammatory and neuron survival effects
[2]; 10-pyrene 2-7 μM, 5 nM sPLA2, CHEC-9 0.1, 1.0, 10 nM
  KiNR (apparent inhibition constant) vs substrate concentration: varied inversely with the substrate concentration; also recorded: overall decline in this value with increasing substrate concentration for each peptide concentration
[2]; CHEC-9 0.1 nM, pH 7.4, 22–25°
  Km: 10.8 µM
  Vmax: 11.54 nM/min/ng
[2]; CHEC-9 1.0 nM, pH 7.4, 22–25°
  Km: 3.4 µM
  Vmax: 5.56 nM/min/ng
[2]; CHEC-9 10.0 nM, pH 7.4, 22–25°
  Km: 2.26 µM
  Vmax: 4.04 nM/min/ng
[2]; CHEC-9 0.1-10 nM
  change of Vmax and Km: reduced both the Vmax and Km of the enzyme reaction
[2]; CHEC-9 lower than 10 nM, 2 nM or 6 nM sPLA2, 6 μM 10-pyrene
  effect of CHEC-9 below 10 nM on Vo at 2 nM or 6 nM sPLA2: minimally effective or ineffective at 2 nM or 6 nM sPLA2
[2]; CHEC-9 lower than 10 nM, 10 nM sPLA2, 6 μM 10-pyrene
  effect of CHEC-9 below 10 nM on Vo at 10 nM sPLA2: produced consistent reductions in reaction velocity when used with 10 nM enzyme
[2]; Group I sPLA2, uncompetitive, Ki = KiNR/(1+(Km/[S])), pH 7.4, 22–25°
  Ki: 4.02 ± 1.56 nM
[2]; lowest substrate concentrations
  effect on Vo at lowest substrate concentrations: minimally effective, ineffective, or even potentiated Vo
[2]; nanomolar CHEC-9, substrate one-half Km or less
  velocity of the enzyme reaction (Vo): reduced by nanomolar concentrations of CHEC-9
[2]; 6 μM 10-pyrene
  reduction of Vo with varied enzyme concentration: maximal reductions of Vo occurred at 10 nM sPLA2
[2]; 6 μM 10-pyrene, listed as peptide
  reduction of Vo with varied enzyme concentration: most effective at the highest concentration of sPLA2, and showed declining efficacy at the lower enzyme concentrations
[2]; substrate at one-half Km or less
  type of inhibition, sPLA2 group I: most consistent with an uncompetitive (or anti-competitive) inhibitor of sPLA2 group I
[3]; 25 nM CHEC-9, 20% plasma, increased substrate, mean of three reactions
  inhibition with increased substrate concentrations, rat plasma: this delay of the inhibition is not detected
[3]; 25 nM CHEC-9, 20% plasma, very low substrate, mean of three reactions
  inhibition at very low substrate concentrations, rat plasma: delayed inhibition at the lower substrate concentrations
[3]; lower substrate concentrations, product formation relatively stable
  inhibition at lower substrate concentrations, rat plasma: inhibition by CHEC-9 was readily observed
[3]; substrate > 25 μM
  effect at high substrate concentrations (substrate inhibition), rat plasma: would sometimes reverse this inhibitory effect
[4]; restrained rats, n = 4, on average
  level of active sPLA2 vs pre-injection: holding the level of active enzyme, on average, near pre-injection values
[4]; p < 0.05 by Mann Whitney test, n = 4 rats per group
  significance of sPLA2 reduction vs vehicle: significant differences at 30 and 60 minutes
[5]; plasma and venom-derived sPLA2
  specificity: broad specificity
[5]; read-out: Ki (individual experiments), individual experiments repeated 5 or more times, pH 7.4, 22–25°
  Ki: < 100 nM
[5]; read-out: Ki values (all cases), venom-derived sPLA2 group I and plasma of rats and humans
  Ki: < 100 nM
[5]; venom-derived sPLA2 group I, plasma of rats and humans
  type of inhibition (all enzyme sources): uncompetitive (or anti-competitive) enzyme inhibitor
[6]
  sPLA2 band on native gel, with peptide and substrate: absent or at least dramatically reduced
[6]; listed as peptide
  sPLA2 band on native gel, with peptide and substrate: disappeared or was markedly attenuated
[6]; 26 μM sPLA2, 40 μM CHEC-9, no substrate, pH 7.4, room temperature 30 min
  sPLA2 band on native gel, peptide alone: The same band appeared
[7]; 20% plasma, 10-pyrene 5–30 μM
  type of inhibition, human plasma: consistent with the properties of an uncompetitive inhibitor
[7]; [8]
  Vmax: 1.42 μM/min/ml
  Km: 40.8 µM
[7]; [9]
  Vmax: 0.973 μM/min/ml
  Km: 24.1 µM
[7]; CHEC-9 10, 50 nM, 20% plasma
  change of Km and Vmax, human plasma: Km and Vmax of plasma samples were both reduced by CHEC-9
[7]; Human plasma sPLA2, 20% plasma, uncompetitive, Ki = KiNR/(1+(Km/[S])), pH 7.4, 22–25°
  Ki: 62 ± 13.2 nM
[7]; CHEC-9 10, 50 nM
  effect on enzyme activity at lowest substrate concentrations, human plasma: less effective or even exaggerated the reaction at the lower substrate concentrations
[7]; CHEC-9 10, 50 nM, listed as peptide
  effect on enzyme activity at lowest substrate concentrations, human plasma: exaggerated enzyme activity in human plasma at the lowest substrate concentrations used
